{"source": "patent US20100190797A1", "about": "“C[…] OF ZOPICLONE, PROCESSES FOR THEIR PREPARATION AND THEIR PHARMACEUTICAL COMPOSITIONS” (CIPLA LTD., priority 2007, published 2010)", "key": {"[1]": {"assay": "Stability of crystalline polymorphic forms of Zopiclone (conversion to hydrate form)", "conditions": "conversion to more stable hydrate form of Zopiclone"}, "[2]": {"assay": "Hygroscopicity on exposure to air", "format": "physicochemical", "conditions": "does not capture moisture even on exposure to air"}, "[3]": {"conditions": "background statement; Form A gets converted into dihydrate Form B; cited from earlier work"}}, "data": [{"smiles": "CN1CCN(C(=O)OC2c3nccnc3C(=O)N2c2ccc(Cl)cn2)CC1", "note": "(centres unmarked) [Form C, Zopiclone]", "values": [{"measurement": "thermodynamic stability of the crystalline form", "setting": "[1]", "result": "thermodynamically unstable"}]}, {"smiles": "CN1CCN(C(=O)OC2c3nccnc3C(=O)N2c2ccc(Cl)cn2)CC1", "note": "(centres unmarked) [Zopiclone Form D, Zopiclone]", "values": [{"measurement": "hygroscopicity", "setting": "[2]", "result": "non-hygroscopic"}, {"measurement": "thermodynamic stability of the crystalline form", "setting": "[1]", "result": "stable"}]}, {"smiles": "CN1CCN(C(=O)OC2c3nccnc3C(=O)N2c2ccc(Cl)cn2)CC1", "note": "(centres unmarked) [Form B, Zopiclone]", "values": [{"measurement": "stability of the known crystalline form", "setting": "[3]", "result": "thermodynamically stable"}]}, {"smiles": "CN1CCN(C(=O)OC2c3nccnc3C(=O)N2c2ccc(Cl)cn2)CC1", "note": "(centres unmarked) [Zopiclone Form A, Zopiclone]", "values": [{"measurement": "stability of the known crystalline form", "setting": "[3]", "result": "unstable"}]}]}
